Source: ChEMBL document CHEMBL1921715, “Usabamycins A-C: new anthramycin-type analogues from a marine-derived actinomycete” (Bioorg Med Chem Lett, 2011)
Activity calls are given as the source filed them. No cut-off for these calls is given here.

Key:
[1] = biological target: T1, 5-hydroxytryptamine receptor 1A (Homo sapiens) (UniProt P08908); experiment: Inhibition of 5HT1A receptor at 25 uM
T1 sequence (whole entry): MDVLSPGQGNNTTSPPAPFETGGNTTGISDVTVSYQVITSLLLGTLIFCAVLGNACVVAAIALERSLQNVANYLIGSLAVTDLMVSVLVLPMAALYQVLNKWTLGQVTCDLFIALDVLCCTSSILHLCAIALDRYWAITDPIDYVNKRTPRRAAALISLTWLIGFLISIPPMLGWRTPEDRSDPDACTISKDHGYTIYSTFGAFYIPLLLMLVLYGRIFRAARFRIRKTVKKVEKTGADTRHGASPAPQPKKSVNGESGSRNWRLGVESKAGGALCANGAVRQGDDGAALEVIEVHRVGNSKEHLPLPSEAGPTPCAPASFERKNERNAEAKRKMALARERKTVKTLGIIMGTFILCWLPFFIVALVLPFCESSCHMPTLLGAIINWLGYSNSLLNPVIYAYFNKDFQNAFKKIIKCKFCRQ

[2] = tested on: HeLa; experiment: Cytotoxicity against human HeLa cells; format: functional, cell-based
[3] = biological target: T2, 5-hydroxytryptamine receptor 3A (Homo sapiens) (UniProt P46098); experiment: Inhibition of 5HT3 receptor at 25 uM
T2 sequence (whole entry): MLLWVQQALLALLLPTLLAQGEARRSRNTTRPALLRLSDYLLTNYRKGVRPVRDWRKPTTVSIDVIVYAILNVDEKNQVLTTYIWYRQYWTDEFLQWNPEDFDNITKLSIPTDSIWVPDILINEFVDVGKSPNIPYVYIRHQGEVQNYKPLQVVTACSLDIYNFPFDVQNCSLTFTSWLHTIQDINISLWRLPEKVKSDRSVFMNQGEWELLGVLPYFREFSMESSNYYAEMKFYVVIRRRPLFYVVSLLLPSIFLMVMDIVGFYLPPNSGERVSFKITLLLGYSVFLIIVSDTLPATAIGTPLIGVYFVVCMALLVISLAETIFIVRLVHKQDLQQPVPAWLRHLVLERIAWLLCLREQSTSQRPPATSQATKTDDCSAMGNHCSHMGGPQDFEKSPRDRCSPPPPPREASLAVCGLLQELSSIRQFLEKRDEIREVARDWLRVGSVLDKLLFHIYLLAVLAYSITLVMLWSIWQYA

[4] = biological target: 5-hydroxytryptamine receptor 2B (Homo sapiens, UniProt P41595); experiment: Inhibition of human 5HT2B receptor expressed in cos-7 cells assessed as [3H]5-HT […] after 120 mins; format: cell-based
Sequence of 5-hydroxytryptamine receptor 2B (P41595 whole entry): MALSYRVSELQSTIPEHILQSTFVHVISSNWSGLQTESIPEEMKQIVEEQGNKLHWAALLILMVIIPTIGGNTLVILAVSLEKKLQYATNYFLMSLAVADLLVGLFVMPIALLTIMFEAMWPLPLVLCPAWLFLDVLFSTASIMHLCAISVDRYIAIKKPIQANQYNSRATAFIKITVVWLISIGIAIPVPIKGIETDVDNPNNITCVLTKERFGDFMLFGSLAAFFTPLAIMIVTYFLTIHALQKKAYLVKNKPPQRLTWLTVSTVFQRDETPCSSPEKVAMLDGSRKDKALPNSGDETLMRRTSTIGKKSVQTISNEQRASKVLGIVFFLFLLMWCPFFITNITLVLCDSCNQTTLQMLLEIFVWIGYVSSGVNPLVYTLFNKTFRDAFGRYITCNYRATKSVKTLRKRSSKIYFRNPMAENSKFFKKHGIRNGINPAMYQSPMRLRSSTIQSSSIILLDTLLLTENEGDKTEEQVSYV

Q: For `CC/C=C1\C[C@H]2CNc3c(OC)cccc3C(=O)N2C1` [USABAMYCIN A], which inhibition [1] is on record?
A: inactive

Q: What about the IC50 [2] of the same compound?
A: 107 µM

Q: What about the inhibition [3] of the same compound?
A: inactive

Q: And the IC50 [4]?
A: 12.4 µM

Q: What about the Ki [4] of the same compound?
A: 7.89 µM

Q: For `C/C=C1\C[C@H]2CNc3c(OC)cccc3C(=O)N2C1` [USABAMYCIN B], which inhibition [1] is on record?
A: inactive

Q: And the IC50 [2]?
A: 104 µM

Q: And the inhibition [3]?
A: inactive

Q: What about the IC50 [4] of the same compound?
A: 8.45 µM

Q: What about the Ki [4] of the same compound?
A: 5.38 µM

Q: How did the inhibition [1] turn out when `CC/C=C1\C[C@H]2CNc3ccccc3C(=O)N2C1` [USABAMYCIN C] was run?
A: inactive

Q: What about the IC50 [2] of the same compound?
A: 102 µM

Q: What about the inhibition [3] of the same compound?
A: inactive

Q: What about the IC50 [4] of the same compound?
A: 8.24 µM

Q: What about the Ki [4] of the same compound?
A: 5.24 µM
